This note sets out measurements from ChEMBL document CHEMBL5137017, “Identification of NVP-CLR457 as an Orally Bioavailable Non-CNS-Penetrant pan-Class IA Phosphoinositol-3-Kinase Inhibitor” (J Med Chem, 2022).

A short description of series [1]: Toxicity in athymic nude mouse xenografted with rat Rat1 cells expressing myr-p110delta assessed as body weight loss at 30 mg/kg, po bid measured for 7 to 15 days. Format: organism-based. Conditions: in vivo, time 7-15 day.
Series [2] deals with Rat1. The series can be described thus: Antitumor activity at rat Rat1 cells expressing myr-p110alpha xenografted in athymic nude mouse assessed as T/C ratio at 20 mg/kg, po bid measured after 14 to 22 days. Conditions: time 14-22 day. It counts as functional.
Series [3] addresses T1, Tubulin (Homo sapiens) (UniProt P68371+Q9H4B7+P0DPH7+P68366+Q13509+Q71U36+P04350+Q3ZCM7+P07437+P68363+Q9BQE3+Q6PEY2+Q13885+Q9BVA1+Q9BUF5). The series can be described thus: Binding affinity to tubulin in human A2058 cells assessed as condensed DNA score at 5 uM measured after 24 hrs by DiffQuick staining based microscopic analysis. Format: cell-based.
The target of another series is Tubulin (Sus scrofa) (UniProt P02554+P02550). The series can be described thus: Inhibition of porcine tubulin polymerization assessed as inhibition of microtubule polymerization at 15 to 30 uM measured after 1 hr. Format: protein assay. Conditions: dose 15-30 µM, DDE = dose-dependent effect.
Chain of Tubulin (Sus scrofa) (P02550 whole entry, looked up): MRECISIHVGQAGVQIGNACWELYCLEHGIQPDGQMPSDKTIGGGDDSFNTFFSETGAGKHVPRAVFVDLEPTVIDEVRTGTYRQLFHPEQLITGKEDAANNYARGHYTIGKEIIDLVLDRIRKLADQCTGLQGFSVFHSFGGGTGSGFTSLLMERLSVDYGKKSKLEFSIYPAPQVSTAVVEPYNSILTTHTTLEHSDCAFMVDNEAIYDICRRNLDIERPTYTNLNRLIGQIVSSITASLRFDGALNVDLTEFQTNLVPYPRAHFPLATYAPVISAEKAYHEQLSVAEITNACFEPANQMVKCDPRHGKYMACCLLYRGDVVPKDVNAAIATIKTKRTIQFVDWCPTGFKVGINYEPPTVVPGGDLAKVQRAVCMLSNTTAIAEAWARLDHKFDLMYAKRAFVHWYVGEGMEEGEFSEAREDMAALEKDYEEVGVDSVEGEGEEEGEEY
Chain of Tubulin (Sus scrofa) (P02554 whole entry, looked up): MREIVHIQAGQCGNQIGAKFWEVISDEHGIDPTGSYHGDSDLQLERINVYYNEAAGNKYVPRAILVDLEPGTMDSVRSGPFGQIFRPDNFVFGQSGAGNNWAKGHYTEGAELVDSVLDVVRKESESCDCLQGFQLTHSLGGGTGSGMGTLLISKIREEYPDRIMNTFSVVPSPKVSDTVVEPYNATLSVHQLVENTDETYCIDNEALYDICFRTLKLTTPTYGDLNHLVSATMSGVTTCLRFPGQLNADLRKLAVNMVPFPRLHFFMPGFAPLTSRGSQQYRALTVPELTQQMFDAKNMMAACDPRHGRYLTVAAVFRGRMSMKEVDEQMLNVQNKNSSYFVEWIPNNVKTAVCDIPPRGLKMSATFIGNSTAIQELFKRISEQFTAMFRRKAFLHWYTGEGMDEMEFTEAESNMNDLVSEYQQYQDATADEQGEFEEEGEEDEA
A short description of series [4]: Toxicity in athymic nude mouse xenografted with rat Rat1 cells expressing myr-p110delta assessed as drug tolerance at 20 mg/kg, po bid measured for 7 to 15 days. Format: organism-based. Conditions: in vivo, time 7-15 day.
Series [5] can be described thus: Brain to blood ratio in OF1 mouse at 1 mg/kg, iv measured at 1 hr post dose by LC-MS/MS analysis. Format: ADME, organism-based. Conditions: brain and blood, read-out: BBR.
Series [6] relates to Rat1. Put plainly: Antitumor activity at rat Rat1 cells expressing myr-p110alpha xenografted in athymic nude mouse assessed as T/C ratio at 30 mg/kg, po bid measured after 14 to 22 days. Format: functional. Conditions: time 14-22 day.
The target of series [7] is T1, Tubulin (Homo sapiens). The series can be described thus: Binding affinity to tubulin in human A2058 cells assessed as condensed DNA score at 5 uM measured after 6 hrs by DiffQuick staining based microscopic analysis. It counts as cell-based.
The subject of series [8] is Rat1. Put plainly: Antitumor activity at rat Rat1 cells expressing myr-p110delta xenografted in athymic nude mouse assessed as T/C ratio at 20 mg/kg, po bid measured after 7 to 15 days. Format: functional. Conditions: time 7-15 day.
Series [9] in a line: Toxicity in athymic nude mouse xenografted with rat Rat1 cells expressing myr-p110alpha assessed as body weight loss at 20 to 30 mg/kg, po bid measured for 7 to 15 days. It counts as organism-based. Conditions: in vivo, dose lower 20 mg/kg, time lower 7 day, dose upper 30 mg/kg, time upper 15 day.
For a further series, the system named is A2780. Put plainly: Induction of cell cycle arrest in human A2780 cells assessed as G2/M marker expression level at 30 uM measured after 6 hr by immunofluorescence staining method. Format: functional, cell-based.
Series [10] can be described thus: Brain to blood ratio in OF1 mouse at 1 mg/kg, iv measured at 5 mins post dose by LC-MS/MS analysis. Format: ADME, organism-based. Conditions: brain and blood, read-out: BBR.
In series [11] the test system is Rat1. The series can be described thus: Antitumor activity at rat Rat1 cells expressing myr-p110delta xenografted in athymic nude mouse assessed as T/C ratio at 30 mg/kg, po bid measured after 7 to 15 days. Format: functional. Conditions: time 7-15 day.

Structures are written as SMILES. Calls of active or inactive are those of the source. The calls are words filed in the database; no cut-off is given here. Some results are limits rather than exact numbers.

With `Nc1cc(C(F)(F)F)c(-c2cc(N3CCOCC3)nc(N3CCOCC3)n2)cn1` [BUPARLISIB], the Activity is -8% in series [1]; more than 12% at Tubulin (Homo sapiens) [3]; “Toxic” in series [4]; more than 12% on Tubulin (Homo sapiens) [7]; -7% in series [9]. In addition, the T/C in the series on Rat1 [2] is recorded as -0.15; in the series with Rat1 [6] it was -0.61; with Rat1 [8], 0.1; in the series with Rat1 [11], 0.12. In addition, at Tubulin (Sus scrofa), the inhibition entry is “Dde”. Moreover, the Kp at 1 h in [5] worked out at 1.74. Besides, in the series on A2780, the result was Active. Also, the Kp at 5 min in [10] was 1.98.
